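Values below derive from 48-hour exposures of cells grown in 96-well plates, with endpoints linearly interpolated between the two concentrations bracketing the appropriate inhibition level. At the GI50, growth is halved.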 Activity calls are given as the source filed them. No stated cut-off is given here; in the data, active = GI50 up to about 1.1 µM and inactive = higher. Where only a bound is given, the exact number is not on record here.

We go through twelve molecules from ChEMBL document CHEMBL1201862, “PubChem BioAssay data set” (2004).

Some test systems named below: DLD-1; HOP-18; XF498; Hs-578T; MDA-MB-231; M19-MEL; RXF 631; LXFL 529.
Common to all, as to experiment: growth of human tumour cells (NCI), 48 h

Turning to `CNC(=O)SCC(N)C(=O)O` (stereo not drawn), the GI50 in the assay with DLD-1 was > 100 µM (inactive); in the assay with HOP-18 it was > 78.2 µM (inactive); with XF498, 84.9 µM (inactive).
`NC(CCP(=O)(O)CCC1C=CC=CC1)C(=O)O` (stereo not drawn): the GI50 in the assay with Hs-578T and in the assay with MDA-MB-231 was > 100 µM (inactive) each time.
On to `Nc1cccc2c1C1=NNC(=O)CC1C2` (stereo not drawn), for which the GI50 in the assay with DLD-1, with XF498 and with M19-MEL was > 100 µM (inactive) in each case.
On to `COc1cc(-c2cc(=O)c3c(O)c(CC=C(C)C)c(O)cc3o2)ccc1O`, for which the GI50 was 29.5 µM (inactive) in the assay on Hs-578T and 43.5 µM (inactive) with MDA-MB-231.
The like results for `O=C(Nc1ccccc1F)c1c(O)nc2sccn2c1=O` were, in that order, > 10 µM (inactive) and > 10 µM (inactive).
Take `O=C(c1ccccc1)c1ccc2n[se]nc2c1`: the GI50 in the assay with RXF 631 was 18.8 µM (inactive); in the assay on DLD-1 it was 50 µM (inactive); with LXFL 529, 69.8 µM (inactive); in the assay on HOP-18, < 0.01 µM (active).
Take `C[C@]12CC[C@@H]3c4ccc(OCCN5CCCC5)cc4CC[C@H]3[C@@H]1CCC2=O`: the GI50 in the assay with MDA-MB-231 is 24.5 µM (inactive).
Turning to `COc1ccc(C2SCc3nc4ccccc4n32)cc1` (stereo not drawn), the GI50 is 7.26 µM (inactive) in the assay with RXF 631; 5.48 µM (inactive) in the assay on LXFL 529; > 100 µM (inactive) in the assay on HOP-18; 0.124 µM (active) with XF498; 3.95 µM (inactive) in the assay with M19-MEL.
In the case of `Cn1c(=O)[nH]c2nncnc2c1=O`, the GI50 was 384 µM (inactive) with DLD-1, 13.5 µM (inactive) in the assay on HOP-18, 54.2 µM (inactive) in the assay on XF498 and 43.7 µM (inactive) with M19-MEL.
Consider `CCOC(=O)CCC(NC(=O)OCc1ccccc1)C(=O)NC(CCC(=O)OCC)C(=O)NNC(=O)OC(C)(C)C` (stereo not drawn), for which the GI50 with Hs-578T is > 100 µM (inactive).
As for `CCOC(=O)CSc1nc(N)c2c(-c3ccc(OC)c(OC)c3)c3c(nc2n1)CCCC3`, the GI50 in the assay with Hs-578T was 17.1 µM (inactive); in the assay on MDA-MB-231 it was 43 µM (inactive).
In the case of `O=C1c2cccc3cc4ccccc4c(c23)C(=O)N1CCNCCNCCNCCN1C(=O)c2cccc3cc4ccccc4c(c23)C1=O`, the GI50 in the assay with DLD-1 was < 0.014 µM (active); in the assay on HOP-18, 0.0405 µM (active); in the assay on XF498, 0.0131 µM (active); with M19-MEL it was < 0.01 µM (active).
